# From patent US20090227507A1, “Angiotensin (1-7) Dosage Forms and Uses Thereof” (UNIVERSITY OF SOUTHERN CALIFORNIA, priority 2008, published 2009)
# Experiments:
# Format in all cases: in vivo, human
# [1] = Urinalysis with microscopic examination of sediment in healthy men; details: Subject 011, 200 μg/kg
# Description: (§1) Laboratory measurements were conducted by a local clinical laboratory.
# Blood, urobilinogen, ketones, glucose, protein, microscopic examination of sediment, sodium, and potassium.
# [2] = system: CD3 cells in peripheral blood; assay: Flow cytometry of peripheral blood, CD3 lymphocytes; USB003 SC once daily for 7 days in healthy men; parameters: key to Subjects with shift, Absolute CD3, N-L (normal to low) / Subjects with shift, Absolute CD3, N-H (normal to high) / Subjects with shift, Absolute CD3, L-N (low to normal) / Subjects with shift, Absolute CD3, H-N (high to normal): — signifies subject with no shift from baseline; details: for CD3, Absolute, Mean at Baseline: Baseline (Day 1)
# Description: • Single-center, randomized, double-blind, placebo-controlled, 2 cohort dose-escalation trial of once daily dosing over a 7-day period (7 doses total): • Cohort 1: 2 subjects treated with placebo and 8 subjects treated with 200 μg/kg USB003 (A(1-7)) • Cohort 2: 2 subjects treated with placebo and 8 subjects treated with 300 μg/kg USB003 • For each cohort, there was a Screening Period, Treatment Phase, Follow-up Period, and Study Termination or Early Withdrawal Day. Subjects were confined to the study unit during the Treatment Phase. • Cohort 2 was treated approximately 1 week after completion of the Treatment Phase for Cohort 1 to allow time for the assessment of safety and tolerability in the first cohort.
# Pharmacological Effect: The following evaluations (under efficacy and safety in the protocol) were performed: • Effects on the number of mature blood cells: • 1. CBC (with differential), platelet count, reticulocyte count. • Effects on early hematopoietic progenitor cells and mature lymphocyte subsets in the periphery: • 1. Flow cytometry to evaluate frequency of peripheral blood progenitor cells (eg, CD34^+) and lymphocyte subsets (eg, CD3, CD4, CD8) in peripheral blood. • 2. Collection of blood for later possible culture for progenitor cells (eg, colony forming units-granulocyte/macrophage [CFU-GM]) to evaluate potential effects on CD34^+ hematopoietic progenitor cells in peripheral blood. • 3.
# The effect of USB003 on the number of mature blood cells was assessed by the complete blood count with differential, platelet and reticulocyte counts. The effects on early hematopoietic progenitor cells and mature lymphocyte subsets in the periphery were assessed by flow cytometry. In addition, blood was collected and processed to enable culture of progenitors at a later time.
# Red blood cell (RBC) count, RBC indices, white blood cell count (WBC) with differential, reticulocyte count, platelet count, hemoglobin (Hb), hematocrit (Hct), plasma hemoglobin, peripheral flow cytometry, including CD34^+, flow cytometry for enumeration of CD3, CD4, and CD8 lymphocytes, and culture for progenitor cells in peripheral blood including colony-forming units-granulocyte/macrophage (CFU-GM).
# [3] = Physical examination in healthy men; details: all dose groups; baseline (Day 1) to Day 20
# Excerpt: On Day −1, subjects who met the eligibility criteria underwent a PE, vital sign measurements, and had samples drawn to evaluate clinical laboratory parameters. On Study Days 1 through 7 for each cohort, subjects received a single SC injection of USB003 at the assigned dose level or placebo. Subjects were kept in the clinic under observation for the entire Day −1 to Day 8 period. Subjects were discharged from the clinic on the morning of Day 8 after all scheduled procedures and a 24-hour urine collection had been completed. Subjects were scheduled to return to the clinic on Days 11, 14, 17, and 20 for hematology measurements and selected safety assessments. Subjects were to be released from the study following a post-study PE on Day 20.
# On Day 20 of the study, subjects were to have returned to the clinic for the post-study check and PE. Blood samples for hematology and plasma USB003 were also drawn.
# as §1
substance,measurement,setting,value
Asp-Arg-Val-Tyr-Ile-His-Pro [USB003],Urine Glucose High/Low Normal/Abnormal,[1]; Day 1,Abnormal
same,Urine Glucose Significance,[1]; Day 1,CS AE
same,Urine Glucose Value,[1]; Day 1,+1
same,Urine Glucose High/Low Normal/Abnormal,[1]; Day 3,N
same,Urine Glucose Value,[1]; Day 3,neg
same,"CD3, Absolute, Mean at Baseline",[2]; 200 μg/kg,1732.3 cells/μL
same,"Subjects with shift, Absolute CD3, H-N (high to normal)","[2]; 200 μg/kg, Baseline to Day 8",1
same,"Subjects with shift, Absolute CD3, L-N (low to normal)","[2]; 200 μg/kg, Baseline to Day 8",—
same,"Subjects with shift, Absolute CD3, N-H (normal to high)","[2]; 200 μg/kg, Baseline to Day 8",—
same,"Subjects with shift, Absolute CD3, N-L (normal to low)","[2]; 200 μg/kg, Baseline to Day 8",—
same,"Subjects with shift, Absolute CD3, H-N (high to normal)","[2]; 200 μg/kg, Baseline to Day 20",1
same,"Subjects with shift, Absolute CD3, L-N (low to normal)","[2]; 200 μg/kg, Baseline to Day 20",—
same,"Subjects with shift, Absolute CD3, N-H (normal to high)","[2]; 200 μg/kg, Baseline to Day 20",—
same,"Subjects with shift, Absolute CD3, N-L (normal to low)","[2]; 200 μg/kg, Baseline to Day 20",—
same,"CD3, Absolute, Mean Change from Baseline","[2]; 200 μg/kg, Day 3",−115.8 cells/μL
same,"CD3, Absolute, Mean Change from Baseline","[2]; 200 μg/kg, Day 5",70.6 cells/μL
same,"CD3, Absolute, Mean Change from Baseline","[2]; 200 μg/kg, Day 7",53.9 cells/μL
same,"CD3, Absolute, Mean Change from Baseline","[2]; 200 μg/kg, Day 8",−32.0 cells/μL
same,"CD3, Absolute, Mean Change from Baseline","[2]; 200 μg/kg, Day 11",122.0 cells/μL
same,"CD3, Absolute, Mean Change from Baseline","[2]; 200 μg/kg, Day 14",60.0 cells/μL
same,"CD3, Absolute, Mean Change from Baseline","[2]; 200 μg/kg, Day 17",−121.1 cells/μL
same,"CD3, Absolute, Mean Change from Baseline","[2]; 200 μg/kg, Day 20",−63.6 cells/μL
same,increase in CD3 (pan T cell marker) during study drug administration,"[2]; 300 μg/kg/day, rapidly diminished after cessation of treatment",15-20%
same,"CD3, Absolute, Mean at Baseline",[2]; 300 μg/kg,1285.5 cells/μL
same,"Subjects with shift, Absolute CD3, H-N (high to normal)","[2]; 300 μg/kg, Baseline to Day 8",—
same,"Subjects with shift, Absolute CD3, L-N (low to normal)","[2]; 300 μg/kg, Baseline to Day 8",—
same,"Subjects with shift, Absolute CD3, N-H (normal to high)","[2]; 300 μg/kg, Baseline to Day 8",—
same,"Subjects with shift, Absolute CD3, N-L (normal to low)","[2]; 300 μg/kg, Baseline to Day 8",—
same,"Subjects with shift, Absolute CD3, H-N (high to normal)","[2]; 300 μg/kg, Baseline to Day 20",—
same,"Subjects with shift, Absolute CD3, L-N (low to normal)","[2]; 300 μg/kg, Baseline to Day 20",—
same,"Subjects with shift, Absolute CD3, N-H (normal to high)","[2]; 300 μg/kg, Baseline to Day 20",—
same,"Subjects with shift, Absolute CD3, N-L (normal to low)","[2]; 300 μg/kg, Baseline to Day 20",—
same,"CD3, Absolute, Mean Change from Baseline","[2]; 300 μg/kg, Day 3",167.8 cells/μL
same,"CD3, Absolute, Mean Change from Baseline","[2]; 300 μg/kg, Day 5",159.8 cells/μL
same,"CD3, Absolute, Mean Change from Baseline","[2]; 300 μg/kg, Day 7",229.8 cells/μL
same,"CD3, Absolute, Mean Change from Baseline","[2]; 300 μg/kg, Day 8",67.1 cells/μL
same,"CD3, Absolute, Mean Change from Baseline","[2]; 300 μg/kg, Day 11",−63.5 cells/μL
same,"CD3, Absolute, Mean Change from Baseline","[2]; 300 μg/kg, Day 14",0.3 cells/μL
same,"CD3, Absolute, Mean Change from Baseline","[2]; 300 μg/kg, Day 17",−87.9 cells/μL
same,"CD3, Absolute, Mean Change from Baseline","[2]; 300 μg/kg, Day 20",56.9 cells/μL
same,PE findings,[3],no changes from baseline
